# Values quoted from earlier work, collected in PubChem BioAssay AID1259409 (Chemical Carcinogenesis Research Information System (CCRIS), 2018).
# Where “and” joins values, the source holds several entries; their conditions need not be identical. Identical values can stand only once.
# Test system: rodent chemically induced tumor inhibition, incidence and multiplicity
# Experiment: CCRIS tumor inhibitor studies
# Settings: Promoter: NONE USED
compound,measurement,setting,value
CC1=C(/C=C/C(C)=C/C=C/C(C)=C/C(=O)Nc2ccc(C(=O)O)cc2)C(C)(C)CCC1,"tumour outcome (control, treated, inhibition, significance)","Carcinogen: L-AZASERINE, 115-02-6, Dose [Inhibitor]: 1 MMOL/KG DIET DAILY FOR 91 D FOLLOWED BY 0.5 MMOL/KG DIET DAILY FOR 246 D DURING A 358 D PERIOD STARTING 1 WK AFTER COM, Route [Inhibitor]: ORAL, Species: RAT, Strain/Sex: WISTAR-LEWIS/FEMALE, Target Tissue: Type of Lesion: PANCREAS: ADENOMA, Dose [Carcinogen]: 10 MG/KG BW 1/WK FOR 15 WK","35%, 38%, -9%, not significant"
same,"tumour outcome (control, treated, inhibition, significance)","Carcinogen: L-AZASERINE, 115-02-6, Dose [Inhibitor]: 1 MMOL/KG DIET DAILY FOR 91 D FOLLOWED BY 0.5 MMOL/KG DIET DAILY FOR 246 D DURING A 358 D PERIOD STARTING 1 WK AFTER COM, Route [Inhibitor]: ORAL, Species: RAT, Strain/Sex: WISTAR-LEWIS/FEMALE, Target Tissue: Type of Lesion: PANCREAS: CARCINOMA IN SITU, Dose [Carcinogen]: 10 MG/KG BW 1/WK FOR 15 WK","48%, 8%, 83%, not significant"
same,"tumour outcome (control, treated, inhibition, significance)","Carcinogen: L-AZASERINE, 115-02-6, Dose [Inhibitor]: 1 MMOL/KG DIET DAILY FOR 91 D FOLLOWED BY 0.5 MMOL/KG DIET DAILY FOR 246 D DURING A 358 D PERIOD STARTING 1 WK AFTER COM, Route [Inhibitor]: ORAL, Species: RAT, Strain/Sex: WISTAR-LEWIS/FEMALE, Target Tissue: Type of Lesion: PANCREAS: CARCINOMA, Dose [Carcinogen]: 10 MG/KG BW 1/WK FOR 15 WK","4%, 0%, 100%, not significant"
same,"tumour outcome (control, treated, inhibition, significance)","Carcinogen: L-AZASERINE, 115-02-6, Dose [Inhibitor]: 1 MMOL/KG DIET DAILY FOR 91 D FOLLOWED BY 0.5 MMOL/KG DIET DAILY FOR 246 D DURING A 358 D PERIOD STARTING 1 WK AFTER COM, Route [Inhibitor]: ORAL, Species: RAT, Strain/Sex: WISTAR-LEWIS/FEMALE, Target Tissue: Type of Lesion: PANCREAS: NEOPLASM, Dose [Carcinogen]: 10 MG/KG BW 1/WK FOR 15 WK STARTING 15 WK","87%, 46%, 47%, p<0.05"
same,"tumour outcome (control, treated, inhibition, significance)","Carcinogen: L-AZASERINE, 115-02-6, Dose [Inhibitor]: 1 MMOL/KG DIET DAILY FOR 91 D FOLLOWED BY 0.5 MMOL/KG DIET DAILY FOR 246 D DURING A 358 D PERIOD STARTING 1 WK AFTER COM, Route [Inhibitor]: ORAL, Species: RAT, Strain/Sex: WISTAR-LEWIS/MALE, Target Tissue: Type of Lesion: PANCREAS: ADENOMA, Dose [Carcinogen]: 10 MG/KG BW 1/WK FOR 15 WK","29%, 16%, 45%, not significant"
same,"tumour outcome (control, treated, inhibition, significance)","Carcinogen: L-AZASERINE, 115-02-6, Dose [Inhibitor]: 1 MMOL/KG DIET DAILY FOR 91 D FOLLOWED BY 0.5 MMOL/KG DIET DAILY FOR 246 D DURING A 358 D PERIOD STARTING 1 WK AFTER COM, Route [Inhibitor]: ORAL, Species: RAT, Strain/Sex: WISTAR-LEWIS/MALE, Target Tissue: Type of Lesion: PANCREAS: CARCINOMA IN SITU, Dose [Carcinogen]: 10 MG/KG BW 1/WK FOR 15 WK","58%, 64%, -10%, not significant"
same,"tumour outcome (control, treated, inhibition, significance)","Carcinogen: L-AZASERINE, 115-02-6, Dose [Inhibitor]: 1 MMOL/KG DIET DAILY FOR 91 D FOLLOWED BY 0.5 MMOL/KG DIET DAILY FOR 246 D DURING A 358 D PERIOD STARTING 1 WK AFTER COM, Route [Inhibitor]: ORAL, Species: RAT, Strain/Sex: WISTAR-LEWIS/MALE, Target Tissue: Type of Lesion: PANCREAS: CARCINOMA, Dose [Carcinogen]: 10 MG/KG BW 1/WK FOR 15 WK","8%, 16%, -100%, not significant"
same,"tumour outcome (control, treated, inhibition, significance)","Carcinogen: L-AZASERINE, 115-02-6, Dose [Inhibitor]: 1 MMOL/KG DIET DAILY FOR 91 D FOLLOWED BY 0.5 MMOL/KG DIET DAILY FOR 246 D DURING A 358 D PERIOD STARTING 1 WK AFTER COM, Route [Inhibitor]: ORAL, Species: RAT, Strain/Sex: WISTAR-LEWIS/MALE, Target Tissue: Type of Lesion: PANCREAS: NEOPLASM, Dose [Carcinogen]: 10 MG/KG BW 1/WK FOR 15 WK","95%, 96%, -1%, not significant"
O=S(=O)(O)c1ccccc1,"tumour outcome (control, treated, inhibition, significance)","Carcinogen: BETA-PROPIOLACTONE, 57-57-8, Dose [Inhibitor]: 40 UMOL IN 0.2 ML WATER 5 MIN PRIOR TO EACH CARCINOGEN DOSE (STUDY DURATION: 26 WK), Route [Inhibitor]: GAVAGE, Species: MOUSE, Strain/Sex: STRAIN-A/FEMALE, Target Tissue: Type of Lesion: FORESTOMACH: PAPILLOMA, Dose [Carcinogen]: 28 UMOL IN 0.1 ML WATER 2/WK FOR 10 WK","100%, 100%, 0%, not significant"
Nc1ncn([C@H]2C[C@H](O)[C@@H](CO)O2)c(=O)n1,"tumour outcome (control, treated, inhibition, significance)","Carcinogen: 4-(METHYLNITROSAMINO)-1-(3-PYRIDIYL)-1-BUTANONE, 64091-91-4, Dose [Inhibitor]: 0, 1 MG/KG 3/WK FOR 12 WK THEN 0, 0.5 MG/KG FOR 12 WK BEGINNING 1 WK PRIOR TO CARCINOGEN TREATMENT (STUDY DURATION: 24 W, Dose [Inhibitor]: 0, 1 MG/KG 3/WK FOR 12 WK THEN 0, 0.5 MG/KG FOR 12 WK BEGINNING 1 WK PRIOR TO CARCINOGEN TREATMENT (STUDY DURATION: 24 W, Route [Inhibitor]: INTRAPERITONEAL, Species: MOUSE, Strain/Sex: C3AF1/MALE, Target Tissue: Type of Lesion: LUNG: TUMOR, Dose [Carcinogen]: 3.9 MG/MOUSE (TOTAL DOSE) ADMINISTERED IN TWO WEEKLY DOSES OF 1.9 TO 2 MG","100%, 77%, 23%, not significant"
S=C=NCCCCCCCCCCc1ccccc1,"tumour outcome (control, treated, inhibition, significance)","Carcinogen: 4-(METHYLNITROSAMINO)-1-(3-PYRIDYL)-1-BUTANONE, 64091-91-4, Dose [Inhibitor]: 0, 0.04 UMOL ONCE 2 HR PRIOR TO CARCINOGEN DOSE (STUDY DURATION: 16 WK), Route [Inhibitor]: GAVAGE, Species: MOUSE, Strain/Sex: STRAIN-A/FEMALE, Target Tissue: Type of Lesion: LUNG: ADENOMA, Dose [Carcinogen]: 10 UMOL IN 0.1 ML SALINE ONCE","100%, 100%, 0%, not significant"
same,"tumour outcome (control, treated, inhibition, significance)","Carcinogen: 4-(METHYLNITROSAMINO)-1-(3-PYRIDYL)-1-BUTANONE, 64091-91-4, Dose [Inhibitor]: 0, 0.1 UMOL ONCE 2 HR PRIOR TO CARCINOGEN DOSE (STUDY DURATION: 16 WK), Route [Inhibitor]: GAVAGE, Species: MOUSE, Strain/Sex: STRAIN-A/FEMALE, Target Tissue: Type of Lesion: LUNG: ADENOMA, Dose [Carcinogen]: 10 UMOL IN 0.1 ML SALINE ONCE","100%, 100%, 0%, not significant"
same,"tumour outcome (control, treated, inhibition, significance)","Carcinogen: 4-(METHYLNITROSAMINO)-1-(3-PYRIDYL)-1-BUTANONE, 64091-91-4, Dose [Inhibitor]: 0, 0.2 UMOL ONCE 2 HR PRIOR TO CARCINOGEN DOSE (STUDY DURATION: 16 WK), Route [Inhibitor]: GAVAGE, Species: MOUSE, Strain/Sex: STRAIN-A/FEMALE, Target Tissue: Type of Lesion: LUNG: ADENOMA, Dose [Carcinogen]: 10 UMOL IN 0.1 ML SALINE ONCE","100%, 70%, 30%, p<0.05"
COc1ccc(O)cc1C(C)(C)C,"tumour outcome (control, treated, inhibition, significance)","Carcinogen: BENZO[A]PYRENE, 50-32-8, Dose [Inhibitor]: 0.03 MMOL/G OF DIET DAILY STARTING 7 D BEFORE AND CONTINUING THROUGH 3 D AFTER CARCINOGEN TREATMENT FOLLOWED BY OBSERVAT, Route [Inhibitor]: ORAL, Species: MOUSE, Strain/Sex: ICR/FEMALE, Target Tissue: Type of Lesion: FORESTOMACH: NEOPLASM, Dose [Carcinogen]: 1 MG IN 0.2 ML CORN OIL 2/WK FOR 4 WK","94%, 60%, 36%, p<0.05 and 90%, 65%, 28%, not significant"
same,"tumour outcome (control, treated, inhibition, significance)","Carcinogen: CIPROFIBRATE, 52214-84-3, Dose [Inhibitor]: 0.5% IN DIET FOR 60 WK (STUDY DURATION: 60 WK), Route [Inhibitor]: ORAL, Species: RAT, Strain/Sex: F344/MALE, Target Tissue: Type of Lesion: LIVER: TUMOR, Dose [Carcinogen]: 10 MG/KG/BW IN DIET SIMULTANEOUSLY WITH INHIBITOR FOR 60 WK","22/25 (88%), 12/25 (48%), 45%, p<0.005"
